Assay results reported in paper PMC8159111 (Pathogens, 2021).
Read-outs that look alike come from different tables or passages of the source.

How the values were obtained:
[1] = Cytotoxicity (CC50) determination, crystal violet assay; assay type: cell-based; details: African green monkey, Vero E6 cells, Table 4 prints no unit, Figure 4 prints μM, read-out: CC50 (half-maximal cytotoxic concentration)
Experimental: To assess the half maximal cytotoxic concentration (CC50), stock solutions of the test compounds were prepared in 10% DMSO in ddH2O and diluted further to the working solutions with DMEM. The cytotoxic activity of the extracts was tested in VERO-E6 cells by using crystal violet assay as previously described with minor modifications. Briefly, the cells were seeded in 96-well plates (100 µL/well at a density of 3 × 10^5 cells/mL) and incubated for 24 h at 37 °C in a humidified 5% CO2 incubator. After 24 h, cells were treated with various concentrations of the tested compounds in triplicates. Seventy two hours later, the supernatant was discarded, and cell monolayers were fixed with 10% formaldehyde for 1 h at room temperature (RT). The fixed monolayers were then dried and stained with 50 µL of 0.1% crystal violet for 20 min on a bench rocker at RT. The monolayers were then washed, dried and the crystal violet dye in each well was then dissolved with 200 µL of methanol for 20 min on a bench rocker at RT. The absorbance of crystal violet solutions was measured at λmax 570 nm as a reference wavelength using a multi-well plate reader.

[2] = test system: SARS-CoV-2 "NRC-03-nhCoV" virus; assay: Inhibitory concentration 50 (IC50) determination, reduction of virus-induced cytopathic effect in Vero-E6 cells; assay type: cell-based; details: for Selectivity Index (CC50/IC50): CC50 on Vero E6 / IC50 against NRC-03-nhCoV; for IC50: Severe acute respiratory syndrome coronavirus 2, Vero C1008, 72 h, unit not given in Table 4 and Figure 6, Figure 4 and text print μM
Experimental: The IC50 values for the tested compounds were determined as previously described, with minor modifications. Briefly, in 96-well tissue culture plates, 2.4 × 10^4 Vero-E6 cells were distributed in each well and incubated overnight at a humidified 37°C incubator under 5% CO2 condition. The cell monolayers were then washed once with 1× PBS. An aliquot of the SARS-CoV-2 “NRC-03-nhCoV” virus containing 100 TCID50 was incubated with serial diluted compounds and kept at 37 °C for 1 h. The Vero-E6 cells were treated with virus/compound mix and co-incubated at 37 °C in a total volume of 200 µL per well. Untreated cells infected with virus represented the virus control; however, cells that were not treated and not infected were the cell control. Following incubation at 37 °C in 5% CO2 incubator for 72 h, the cells were fixed with 100 μL of 10% paraformaldehyde for 20 min and stained with 0.5% crystal violet in distilled water for 15 min at RT. The crystal violet dye was then dissolved using 100 μL of absolute methanol per well and the optical density of the color was measured at 570 nm using the Anthos Zenyth 200 rt plate reader (Anthos Labtec Instruments, Heerhugowaard, the Netherlands).

[3] = against NRC-03-nhCoV in Vero E6, 72 h, CPE reduction, crystal violet, read-out: IC50 (half-maximal inhibitory concentration)

Structure (SMILES) | CC50 at 72 h [1] [µM] | Selectivity Index (CC50/IC50) [2] | IC50 ([2]; read-out: IC50 (half-maximal inhibitory concentration), against NRC-03-nhCoV in Vero E6, 72 h, CPE reduction, crystal violet) [µM] | IC50 [2, 3] [µM]
COc1ccc(-c2cc(COC(=O)C34CCC(C)(C)CC3C3=CCC5C6(C)CC(O)C(O)C(C)(C)C6CCC5(C)C3(C)CC4)on2)cc1 (stereo not drawn) [Compound 16, (3-(4-methoxyphenyl)isoxazol-5-yl) methyl-(2α,3β)-2,3-dihydroxyolean-12-en-28-oate] | 324 | 1.48 | 219 | 
C#CCOC(=O)C12CCC(C)(C)CC1C1=CCC3C4(C)CC(O)C(OCC#C)C(C)(C)C4CCC3(C)C1(C)CC2 (stereo not drawn) [Compound 6, Propargyl-(3α)-3-(propargyloxy)-(2β)-2-hydroxy-olean-12-en-28-oate] | 209 | 1.55 |  | 135
Cc1cccc(-n2cc(COC(=O)C34CCC(C)(C)CC3C3=CCC5C6(C)CCC(O)C(C)(C)C6CCC5(C)C3(C)CC4)nn2)c1 (stereo not drawn) [Compound 10, (1-(3-methylphenyl)-1H-1,2,3-triazol-4-yl)methyl-(3β)-3-hydroxyolean-12-en-28-oate] | 277 | 3.68 |  | 75.3
C#CCOC(=O)C12CCC(C)(C)CC1C1=CCC3C4(C)CC(OCC#C)C(OCC#C)C(C)(C)C4CCC3(C)C1(C)CC2 (stereo not drawn) [Compound 7, Propargyl-(2α,3β)-2,3-bis(propargyloxy)-olean-12-en-28-oate] | 97.4 | 0.90 |  | 108
COc1ccc(-c2cc(COC(=O)C34CCC(C)(C)CC3C3=CCC5C6(C)CCC(O)C(C)(C)C6CCC5(C)C3(C)CC4)on2)cc1 (stereo not drawn) [Compound 15, (3-(4-methoxyphenyl)isoxazol-5-yl) methyl-(3β)-3-hydroxyolean-12-en-28-oate] |  |  |  | 523
Cc1cccc(-n2nncc2COC(=O)C23CCC(C)(C)CC2C2=CCC4C5(C)CCC(O)C(C)(C)C5CCC4(C)C2(C)CC3)c1 (stereo not drawn) [Compound 8, (1-(3-methylphenyl)-1H-1,2,3-triazol-5-yl)methyl-(3β)-3-hydroxyolean-12-en-28-oate] | 170 | 0.98 |  | 174
C#CCOC(=O)C12CCC(C)(C)CC1C1=CCC3C4(C)CC(OCC#C)C(O)C(C)(C)C4CCC3(C)C1(C)CC2 (stereo not drawn) [Compound 5, Propargyl-(2α)-2-(propargyloxy)-(3β)-3-hydroxy-olean-12-en-28-oate] | 90.6 | 1.06 |  | 85.2
CC1(C)CC[C@]2(C(=O)OCc3cn(-c4ccc(Cl)cc4)nn3)CC[C@]3(C)C(=CCC4[C@@]5(C)C[C@@H](OCc6cn(-c7ccc(Cl)cc7)nn6)[C@H](O)C(C)(C)C5CC[C@]43C)C2C1 (stereo partly drawn) [Compound 12, (1-(4-Chlorophenyl)-1H-1,2,3-triazol-4-yl)methyl-(2α,3β)-2-((1-(4-chlorophenyl)-1H-1,2,3-triazol-4-yl)methoxy)-3-hydroxyolean-12-en-28-oate] | 514 | 4.42 |  | 
COc1ccc(-n2cc(COC(=O)[C@]34CCC(C)(C)CC3C3=CCC5[C@@]6(C)C[C@@H](O)[C@H](OCc7cn(-c8ccc(OC)cc8)nn7)C(C)(C)C6CC[C@@]5(C)[C@]3(C)CC4)nn2)cc1 (stereo partly drawn) [Compound 13, (1-(4-Methoxyphenyl)-1H-1,2,3-triazol-4-yl)methyl-(2α,3β)-2-hydroxy-3-((1-(4-methoxyphenyl)-1H-1,2,3-triazol-4-yl)methoxy)-olean-12-en-28-oate] | 356 | 2.24 |  | 
CC1(C)CC[C@]2(C(=O)O)CC[C@]3(C)C(=CC[C@@H]4[C@@]5(C)C[C@@H](O)[C@H](O)C(C)(C)[C@@H]5CC[C@]43C)[C@@H]2C1 [Compound 2, Maslinic acid] | 97.3 | 0.97 |  | 99.9
C#CCOC(=O)[C@]12CCC(C)(C)CC1C1=CCC3[C@@]4(C)CC[C@H](O)C(C)(C)C4CC[C@@]3(C)[C@]1(C)CC2 (stereo partly drawn) [Compound 3, Propargyl-(3β)-3-hydroxyolean-12-en-28-oate] | 97.4 | 2.32 |  | 42
COc1ccc(-n2cc(COC(=O)[C@]34CCC(C)(C)CC3C3=CCC5[C@@]6(C)C[C@@H](OCc7cn(-c8ccc(OC)cc8)nn7)[C@H](OCc7cn(-c8ccc(OC)cc8)nn7)C(C)(C)C6CC[C@@]5(C)[C@]3(C)CC4)nn2)cc1 (stereo partly drawn) [Compound 14, (1-(4-Methoxyphenyl)-1H-1,2,3-triazol-4-yl)methyl-(2α,3β)-2,3-bis((1-(4-methoxyphenyl)-1H-1,2,3-triazol-4-yl)methoxy)-olean-12-en-28-oate] | 405 | 2.96 |  | 
CC1(C)CCC2(C(=O)OCc3cn(-c4ccccc4)nn3)CCC3(C)C(=CCC4C5(C)CC(O)C(O)C(C)(C)C5CCC43C)C2C1 (stereo not drawn) [Compound 11, (1-Phenyl-1H-1,2,3-triazol-4-yl)methyl-(2α,3β)-2,3-dihydroxyolean-12-en-28-oate] | 218 | 1.62 |  | 135
C#CCOC(=O)[C@]12CCC(C)(C)CC1C1=CCC3[C@@]4(C)C[C@@H](O)[C@H](O)C(C)(C)C4CC[C@@]3(C)[C@]1(C)CC2 (stereo partly drawn) [Compound 4, Propargyl-(2α,3β)-2,3-dihydroxyolean-12-en-28-oate] | 157 | 0.67 |  | 236
CC1(C)CC[C@]2(C(=O)O)CC[C@]3(C)C(=CC[C@@H]4[C@@]5(C)CC[C@H](O)C(C)(C)[C@@H]5CC[C@]43C)[C@@H]2C1 [Compound 1, Oleanolic acid] | 190 | 0.39 |  | 476
